Paper PMC6437697 (Journal of Medicinal Chemistry, 2019)
pIC50: −log10 of the molar value.

How the values were obtained:
[1] = test system: IRE1α-dependent splicing of XBP1u-luciferase mRNA reporter in HEK293 cells; assay: XBP1 luciferase fusion mRNA splicing reporter in HEK293 cells; assay type: cell-based, human; settings: Homo sapiens, HEK293, read-out: tunicamycin- and thapsigargin-induced splicing of XBP1 luciferase fusion mRNA IC50
IRE1α = IRE1α (Homo sapiens, UniProt O75460); assay: biochemical; assay type: binding
IRE1β = IRE1β (Homo sapiens, UniProt Q76MJ5); assay: biochemical; assay type: binding
FLT3(ITD,D835Y) = assay: KINOMEscan; assay type: binding, human; settings: 1000 nM

Sequence of IRE1β (Q76MJ5 35-926): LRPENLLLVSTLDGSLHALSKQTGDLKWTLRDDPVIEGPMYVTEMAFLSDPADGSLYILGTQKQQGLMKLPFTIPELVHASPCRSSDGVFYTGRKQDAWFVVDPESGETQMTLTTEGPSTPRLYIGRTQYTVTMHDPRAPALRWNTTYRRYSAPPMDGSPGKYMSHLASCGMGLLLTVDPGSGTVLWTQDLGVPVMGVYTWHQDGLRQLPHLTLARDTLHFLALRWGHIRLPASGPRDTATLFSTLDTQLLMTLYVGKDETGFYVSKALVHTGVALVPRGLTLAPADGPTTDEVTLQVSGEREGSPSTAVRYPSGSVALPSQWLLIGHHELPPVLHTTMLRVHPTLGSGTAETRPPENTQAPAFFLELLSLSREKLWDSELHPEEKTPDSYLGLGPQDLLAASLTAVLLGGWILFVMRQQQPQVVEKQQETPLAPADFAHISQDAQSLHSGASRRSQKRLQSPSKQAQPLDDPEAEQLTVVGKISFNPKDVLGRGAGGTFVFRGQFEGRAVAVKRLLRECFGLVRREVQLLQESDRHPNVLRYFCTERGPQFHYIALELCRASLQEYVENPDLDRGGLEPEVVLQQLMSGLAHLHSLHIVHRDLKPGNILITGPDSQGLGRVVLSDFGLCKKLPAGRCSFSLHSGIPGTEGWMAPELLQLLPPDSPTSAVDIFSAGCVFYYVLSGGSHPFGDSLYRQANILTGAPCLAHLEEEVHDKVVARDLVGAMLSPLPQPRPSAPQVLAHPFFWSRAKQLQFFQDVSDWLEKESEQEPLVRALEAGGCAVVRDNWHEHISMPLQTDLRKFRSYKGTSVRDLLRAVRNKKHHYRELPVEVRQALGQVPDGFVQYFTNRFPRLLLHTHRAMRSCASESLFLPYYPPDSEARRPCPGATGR
Sequence of IRE1α (O75460 19-977): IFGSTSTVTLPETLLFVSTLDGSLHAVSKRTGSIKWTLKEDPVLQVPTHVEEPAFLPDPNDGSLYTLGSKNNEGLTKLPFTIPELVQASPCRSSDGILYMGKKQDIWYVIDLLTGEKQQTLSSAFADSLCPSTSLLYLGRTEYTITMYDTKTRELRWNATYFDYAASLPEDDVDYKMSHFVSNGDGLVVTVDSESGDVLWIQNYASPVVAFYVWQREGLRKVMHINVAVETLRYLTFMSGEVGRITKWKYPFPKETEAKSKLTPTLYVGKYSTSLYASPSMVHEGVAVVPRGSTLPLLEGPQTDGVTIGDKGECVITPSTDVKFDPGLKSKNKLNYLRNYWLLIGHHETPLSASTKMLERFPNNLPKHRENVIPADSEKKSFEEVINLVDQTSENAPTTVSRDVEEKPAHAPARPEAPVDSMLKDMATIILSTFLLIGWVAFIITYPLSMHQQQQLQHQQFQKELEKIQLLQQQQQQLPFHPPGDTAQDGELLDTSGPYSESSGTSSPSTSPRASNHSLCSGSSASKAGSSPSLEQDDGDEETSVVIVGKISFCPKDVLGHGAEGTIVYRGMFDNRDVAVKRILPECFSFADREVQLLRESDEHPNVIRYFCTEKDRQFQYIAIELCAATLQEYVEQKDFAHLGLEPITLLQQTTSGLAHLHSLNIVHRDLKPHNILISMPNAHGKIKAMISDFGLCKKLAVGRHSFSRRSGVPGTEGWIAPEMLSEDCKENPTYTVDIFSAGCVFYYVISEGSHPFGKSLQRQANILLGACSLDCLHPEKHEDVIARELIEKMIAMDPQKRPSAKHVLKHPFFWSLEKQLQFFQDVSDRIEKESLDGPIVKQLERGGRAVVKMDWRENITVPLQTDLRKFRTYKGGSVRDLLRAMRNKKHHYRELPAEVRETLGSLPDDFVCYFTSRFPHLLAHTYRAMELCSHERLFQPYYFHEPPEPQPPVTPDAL

| SMILES | pIC50 [1] | pIC50 (IRE1α) | pIC50 (IRE1β) | selectivity for IRE1α over the IRE1β isoform (IRE1β) [fold] | % control activity remaining (FLT3(ITD,D835Y)) [%] |
| --- | --- | --- | --- | --- | --- |
| O=C(CN1CCOCC1)N[C@H]1CC[C@H](Nc2cc(Cl)nn3c(-c4ccc5[nH]ncc5c4)cnc23)CC1 [compound 26] | 5.79 to 6.17 | 7.41 | 6.46 | 9 | 25 |
| CN1CCC(CNc2cc(Cl)nn3c(-c4cc5nc(Nc6ccccc6)[nH]c5cc4F)cnc23)CC1 [compound 31, 6-Chloro-3-(6-fluoro-2-(phenylamino)-1H-benzo[d]imidazol-5-yl)-N-((1-methylpiperidin-4-yl)methyl)imidazo[1,2-b]pyridazin-8-amine] | 5.79 to 6.17 |  | 5.11 | 100 | 77 |
